Measured values from publication PMC11361989, “A simple HPLC–MS/MS method for the determination of polymyxin B in human plasma and its application in the pharmacokinetic study in elderly patients infected with multidrug-resistant Gram-negative bacteria” (Frontiers in Pharmacology, 2024).

Key:
[1] = Kidney function indicators (Scr, eGFR) during PB therapy; type: in vivo, human; conditions: elderly patients, 100-mg maintenance dose, after an average of 3.83 days
Description: This study was approved by the Medical Ethics Committee of Shandong Provincial Hospital (No. 2021–356). Written informed consent was obtained from all patients or their legal representatives. Herein, we included 14 elderly patients (65≤ Age ≤95) who received intravenous PB injections (polymyxin B sulfate for injection, Shanghai First Biochemical Pharmaceutical Co., Ltd.) in the period between April 2021 and January 2023 for treating infections caused by multidrug-resistant Gram-negative bacteria. […] CrCL was calculated using the Cockcroft–Gault equation. […] A total of 112 blood samples were collected and detected, and all of these were stored at −70°C. After analysis by the validated methods, PK parameters were calculated by non-compartmental analysis using Phoenix WinNonlin software 8.3 (Certara, United States).
The recommended AUCss, 24 h range of PB, which is based on the therapeutic window of the drug, is between 50 and 100 μg h/mL ([Tsuji et al., 2019]; [Liu et al., 2023]). […] To avoid the MS/MS crosstalk among the above-mentioned analytes undermining their detection sensitivity and quantitative accuracy, each analyte should be quantified with satisfactory chromatographic separation. […] However, crosstalk still should be measured in a high concentration level. […]

[2] = population PK, elderly patients; ref Wang et al., 2022; cited from earlier work
Description: Compared to the administration of a fixed dose of PB, the administration of a body-weight-based dose of PB increases the efficacy of the antibiotic ([Sandri et al., 2013]; [Miglis et al., 2018]; [Tsuji et al., 2019]; [Wang et al., 2021a]). However, clinicians usually administer a fixed dose of PB due to challenges in obtaining accurate body weight information about critically ill patients. Moreover, fixed loading and maintenance doses of polymyxin B appear more appropriate than weight-based dosing regimens in patients within the 45–90-kg BW range ([Hanafin et al., 2023]). This study is the fir ...

[3] = Pharmacokinetic study of intravenous PB in elderly patients infected with multidrug-resistant Gram-negative bacteria; type: in vivo, human; conditions: for AUCss, 24 h: elderly patients, steady state, first-order elimination-based equation, mean ± SD; for Ctrough: human, in vivo
Description: This study was approved by the Medical Ethics Committee of Shandong Provincial Hospital (No. 2021–356). Written informed consent was obtained from all patients or their legal representatives. Herein, we included 14 elderly patients (65≤ Age ≤95) who received intravenous PB injections (polymyxin B sulfate for injection, Shanghai First Biochemical Pharmaceutical Co., Ltd.) in the period between April 2021 and January 2023 for treating infections caused by multidrug-resistant Gram-negative bacteria. These patients were divided into two groups: in the first group, eight patients received 100 mg loading dose combined with 75 mg maintenance dose q 12 h, and in the other group, six subjects received a 150-mg loading dose and a 100-mg maintenance dose q 12 h. The duration of the intravenous treatment was 1 h. The dosage for all patients was decided by the clinician according to the clinical response. Patients undergoing plasma exchange, continuous renal replacement therapy, or extracorporeal membrane oxygenation were excluded. Clinical and demographic data (age, gender, body weight, pathogens, infection sites, and PB-treatment history) were collected from electronic medical records. Laboratory data, including serum creatinine (Scr), estimated glomerular filtration rate (eGFR), and creatinine clearance (CrCL), were collected on the sampling day. CrCL was calculated using the Cockcroft–Gault equation. On the third day after the administration of the loading dose, blood samples were collected at pre-dose (0 h) and 0.5, 1, 2, 3, 6, 8, and 12 h after the start of administration using EDTA tubes and processed to obtain plasma samples. A total of 112 blood samples were collected and detected, and all of these were stored at −70°C. After analysis by the validated methods, PK parameters were calculated by non-compartmental analysis using Phoenix WinNonlin software 8.3 (Certara, United States).
After validation, the HPLC–MS/MS method was applied to the PK study of PB in elderly patients infected with multidrug-resistant Gram-negative bacteria. A total of 112 blood samples were collected from 14 elderly patients receiving intravenous PB treatment. […] The concentration of PB is the sum of the concentrations of PB1 and PB2 calculated, and it is based on the formula provided by [Liu et al. (2023)]. The individual AUCss, 24 h values were estimated using the first-order elimination-based equation method ([Begg et al., 1995]; [Pai et al., 2014]; [Liu et al., 2023]).

[4] = Stability of PB1 and PB2 in human plasma under different storage conditions; conditions: human plasma: 24 h at room temperature (25°C), 24 h at 4°C (post preparative), three freeze–thaw cycles, 85 days at −70°C
Description: The stock solutions of the calibrators and quality control (QC) samples should be prepared separately in the same way. The PB stock solution for calibrators and QC samples was prepared in water (1% FA) at 400.48 μg/mL for PB1 and 40.84 μg/mL for PB2. Consequently, working solutions for construction of calibrators and QC were prepared by serially diluting the stock solution with a 1% aqueous solution of FA. The concentrations of the working solutions for calibrators were 10.01, 30.03, 50.05, 100.12, 150.18, and 200.24 μg/mL for PB1 and 1.02, 3.06, 5.10, 10.21, 15.31, and 20.42 μg/mL for PB2. The concentrations of working solutions for QCs were prepared at 20.02 μg/mL (LQC), 90.11 μg/mL (MQC), and 180.22 μg/mL (HQC) for PB1 and 2.04 μg/mL (LQC), 9.18 μg/mL (MQC), and 18.36 μg/mL (HQC) for PB2. The working solution of IS (10.00 μg/mL) was prepared using methanol. All the above solutions were stored at −70°C. The calibrators and QC samples were obtained by spiking 90 μL of blank plasma with 10 μL of working solution at the corresponding concentration. The standard curves were in the range of 1.00–20.02 μg/mL and 0.10–2.04 μg/mL for PB1 and PB2, respectively.
Typically, 100 μL of the plasma sample was mixed with 10 μL IS working solution, and then, 300 μL 0.1% FA in methanol was added to the sample for protein precipitation. The mixture was vortexed for 3 min and centrifuged in an Eppendorf 5415D microcentrifuge (Eppendorf, Hamburg, Germany) at 11,000 g rpm for 10 min. Subsequently, 200 μL of the supernatant was transferred into a clean polypropylene tube and diluted with 150 μL of 0.1% FA in water. The mixture solution was vortexed for 3 min and centrifuged at 11,000 rpm for 10 min using the same centrifuge. Finally, 200 μL of the supernatant was transferred into an injection bottle, and 10 μL was injected into the HPLC–MS/MS for analysis.
The stability of the working solutions of PB1 and PB2 was evaluated. The short-term stability and long-term stability of PB1 and PB2 in human plasma were evaluated under the following conditions: placed at room temperature or 4°C for 24 h, frozen and thawed three times, and stored at −70°C for 85 days. The stability evaluation was conducted for both LQC and HQC concentrations.

Polymyxin B [PB]
mean Scr value during therapy [1]: 111.82 µmol/L
mean eGFR value during therapy [1]: 66.00 mL/min
typical value of CL [2]: 1.87 L/h
AUCss, 24 h ([3]; maintenance 75 mg q12h, n = 8): 117.70 ± 37.03 µg·h/mL
AUCss, 24 h ([3]; maintenance 100 mg q12h, n = 6): 152.73 ± 70.09 µg·h/mL
Ctrough ([3]; 75 mg): 2650 ± 1320 ng/mL
Ctrough ([3]; 100 mg): 3400 ± 1870 ng/mL
Stability in human plasma (in words) [4]: stable
